The source of these data is patent US20080319065A1, “Systemic and Intrathecal Effects of a Novel Series of Phospholipase A2 Inhibitors on Hyperalgesia and Spinal Pge2 Release” (The Regents of the University of California, priority 2005, published 2008).

SMILES strings stand for the structures.

In series [1] the target is T1, Group IVA cPLA2 (GIVA PLA2) (Homo sapiens, UniProt P47712).
T1 sequence (P47712 1-749): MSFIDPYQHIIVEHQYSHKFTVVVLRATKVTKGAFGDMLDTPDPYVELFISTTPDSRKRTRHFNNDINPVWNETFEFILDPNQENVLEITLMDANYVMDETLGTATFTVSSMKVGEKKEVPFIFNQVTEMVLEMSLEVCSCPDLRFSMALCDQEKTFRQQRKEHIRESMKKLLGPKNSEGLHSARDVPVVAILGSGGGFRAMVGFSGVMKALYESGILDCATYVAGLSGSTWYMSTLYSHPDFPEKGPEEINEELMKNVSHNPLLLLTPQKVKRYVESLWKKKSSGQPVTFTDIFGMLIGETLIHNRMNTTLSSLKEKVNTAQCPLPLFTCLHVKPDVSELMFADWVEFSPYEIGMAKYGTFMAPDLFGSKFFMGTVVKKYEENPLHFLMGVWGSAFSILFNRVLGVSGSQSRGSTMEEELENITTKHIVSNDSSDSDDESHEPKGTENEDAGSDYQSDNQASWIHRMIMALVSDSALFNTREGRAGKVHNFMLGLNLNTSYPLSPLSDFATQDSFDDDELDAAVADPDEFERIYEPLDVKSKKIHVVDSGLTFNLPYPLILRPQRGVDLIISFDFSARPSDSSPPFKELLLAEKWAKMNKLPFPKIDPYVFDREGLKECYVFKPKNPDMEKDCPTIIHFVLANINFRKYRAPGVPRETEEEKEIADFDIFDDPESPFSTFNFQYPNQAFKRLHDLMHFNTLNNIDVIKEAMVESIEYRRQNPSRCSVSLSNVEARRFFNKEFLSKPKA
The experiment in a line: In vitro Group IVA cPLA2 mixed micelle assay. It counts as biochemical.

A further series addresses T2, GVIA PLA2 (Homo sapiens, UniProt O60733).
T2 sequence (O60733 1-806): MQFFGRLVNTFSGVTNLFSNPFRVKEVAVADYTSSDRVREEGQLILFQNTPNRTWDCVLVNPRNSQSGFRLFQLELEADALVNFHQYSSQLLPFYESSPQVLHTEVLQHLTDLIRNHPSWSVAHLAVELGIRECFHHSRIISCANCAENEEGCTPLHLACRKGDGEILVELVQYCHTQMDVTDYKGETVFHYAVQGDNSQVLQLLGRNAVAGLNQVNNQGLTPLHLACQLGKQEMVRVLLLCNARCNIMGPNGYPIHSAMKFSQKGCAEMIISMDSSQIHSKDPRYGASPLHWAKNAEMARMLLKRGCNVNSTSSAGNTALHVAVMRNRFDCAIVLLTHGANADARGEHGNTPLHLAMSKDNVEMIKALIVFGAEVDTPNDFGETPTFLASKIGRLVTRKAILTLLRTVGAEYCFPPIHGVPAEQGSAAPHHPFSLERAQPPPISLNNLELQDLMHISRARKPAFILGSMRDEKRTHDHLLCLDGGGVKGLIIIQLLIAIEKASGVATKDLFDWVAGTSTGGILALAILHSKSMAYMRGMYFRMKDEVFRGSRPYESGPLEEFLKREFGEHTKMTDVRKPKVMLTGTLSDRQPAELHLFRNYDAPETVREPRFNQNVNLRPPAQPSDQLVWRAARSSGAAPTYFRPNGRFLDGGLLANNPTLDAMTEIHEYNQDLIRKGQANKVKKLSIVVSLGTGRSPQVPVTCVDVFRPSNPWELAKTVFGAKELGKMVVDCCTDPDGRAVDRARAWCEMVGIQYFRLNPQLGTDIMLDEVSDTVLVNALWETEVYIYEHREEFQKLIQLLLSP
The series can be described thus: Time dependence and reversibility of GVIA PLA2 inhibition. The format is biochemical. As for the experimental part: GVIA PLA2 (25 ng) was preincubated with either AX010 or AX0073 (5 μM) for 0, 5, 15 or 30 minutes and then assayed in the standard GVIA PLA2 assay mix containing 5 μM inhibitor. The final concentration of the inhibitors in the assay mix was 0.01 mole fraction, and the samples were incubated for 30 minutes at 40° C. […] In the latter respect, 25 ng of GVIA PLA2 was pre-incubated with 10 μM AX010 or AX073 for 10 minutes before diluting the enzyme 1:50 into the standard GVIA PLA2 assay mix lacking inhibitor, and incubating for 30 minutes at 40° C. The final inhibitor concentration in these assays was 0.0004 mole fraction, well below surface concentrations that either AX010 or AX073 inhibit the enzyme.

As a reminder, the melting point is the temperature of the solid-liquid transition. `CCCCCCCCCCCCCCC(=O)C(=O)NCCCC(=O)OCC` [AX048, Ethyl 4-[(2-oxohexadecanoyl)amino]butanoate]: the melting point lay in the range of 63 to 64 °C. For the same compound, the “Group IVA XI(50) (mole fraction)” value in series [1] (Table 1b) stood at 0.022 ± 0.009 mole fraction.

As for `CCC(=O)C(=O)NCCCC(=O)OC` [AX010], the “inhibition of GIVA PLA2 (cPLA2), in words” value in series [1] was “does not significantly inhibit GIVA PLA2”. Besides, in series [1] (at 0.091 mole fraction), the “Group IVA XI(50), class” value is “N.D. (25% inhibition or less at 0.091 mole fraction)”. In series [1] (at highest dose), the “Inhibition of GIVA PLA2” value is recorded as “ND (negligible inhibition (0-25%) at highest dose)”. The “reversibility of GVIA PLA2 inhibition” value on GVIA PLA2 (pre-incubated with 10 μM for 10 minutes, diluted 1:50, final 0.0004 mole fraction) is “freely reversible inhibitors”. In addition, the “time-dependent inhibition of GVIA PLA2” value on GVIA PLA2 (preincubated 0, 5, 15 or 30 minutes, 5 μM inhibitor, 0.01 mole fraction) is on record as “no increased potency with prolonged incubation”.
